Measured values reported in patent US20260256724A1, “T[…] FOR […]” (Asklepion Pharmaceuticals LLC, priority 2022, published 2026).
“Also recorded” adds a separate entry of the source.

Legend:
[1] = system: pediatric patients exposed to cardiopulmonary bypass in congenital heart defect surgery; assay: Phase 3 double-blind, placebo-controlled trial of citrulline in cardiopulmonary bypass surgery, re-analysed by percent of intraoperative Dose 2 received; assay type: in vivo
Description: A Phase 3 study was carried out as a double-blind, placebo-controlled trial to confirm the effect. The Phase 3 trial was performed in the US, EU, and Israel, using a modified intent-to-treat population (or modified full analysis set) of 190 patients, of whom 138 were in the US and 52 were ex-US.
The starting point for the analysis was consideration of the complete modified full analysis set, consisting of all enrolled patients who completed the protocol. […] The Modified Full Analysis Set consists of all enrolled patients who completed the protocol.
In the study protocol and accompanying pharmacy manual for both studies, citrulline dosing occurs in four distinct phases. Dose 1 is a loading dose added to the cardiopulmonary […] bypass fluids on a mg/kg basis. Dose 3 is a bolus administered following surgery on a mg/kg basis, and Dose 4 is an IV drip at 9 mg/kg/hour. No variation in administration of these doses was introduced during the course of the phase 3 study.
In contrast, Dose 2, the intraoperative dosing designed to compensate for ultrafiltration, was subject to some variation. Ultrafiltration during cardiac surgery is not standardized, and therefore, it was not possible to completely standardize this dose. The perfusionist estimates the volume of ultrafiltrate removed, as well as the volume of cardioplegia solution. The perfusionist then calculates according to the study pharmacy manual instructions the amount of citrulline to be administered to compensate for the ultrafiltered citrulline in order to maintain a specified therapeutic level.
Although the therapeutic target level was set at 100 micromolar during the phase 2 study, because of the potential for variation in Dose 2 (which is given intraoperatively to compensate for the routine ongoing ultrafiltration of circulating bypass fluids to reduce the circulating concentrations of inflammatory mediators) and the concern that some patients might inadvertently receive sub-therapeutic intraoperative levels, the target level for Dose 2 in the phase 3 study was increased to 200 micromolar. This was considered to be safe since no adverse effects of citrulline had been reported, even at substantially higher levels in medical use. In order to examine whether variation in Dose 2 could explain the results obtained, the actual dose received, shown as the percent of the targeted dose, was plotted against the composite variable results. Since placebos received no citrulline, they were plotted at the 0% level.
For the Phase 3 trial, a target intraoperative dose of […] (Dose 2) was chosen to preclude an inadvertent drop below an efficacious level in any patient. The potential for variation in intraoperative dosing arises from the lack of standardization of cardiopulmonary bypass ultrafiltration techniques. […] Nonetheless, expansion of the study to a greater number of sites raised the concern that some sites might inadvertently underdose Dose 2. Given the known innocuous nature of L-citrulline, an endogenous amino acid that is given medicinally in doses an order of magnitude higher than this to urea cycle disorder patients, as well as the well-tolerated high endogenous concentrations of citrulline in hypercitrullinemia patients, there was no concern for erring on the high side of the presumed effective dose.
To investigate the data in more detail, patients were stratified according to the dose level actually administered intraoperatively. The values obtained for duration of mechanical ventilation (MV), length of inotrope therapy (InoTx) and the composite primary (created for the SAP, based on the longer of the MV or InoTx) in any patient were segmented into groups based on the percent of the 200 μmol target dose actually received by the patient, by comparing patients who had received <65%, <75%, <85%, <95%, and >95% of the calculated target dose. […] Analysis was performed via two-sided Wilcoxon Rank Sum. […]

[2] = system: nitric oxide production; assay: Nitric oxide production in a murine system, measured via NO metabolites; conditions: increasing citrulline concentration
Source text: It is important to recall that citrulline is regenerated in the last step of NO production, making negative feedback by citrulline a reasonable hypothesis. Alternatively, an acute increase in NO production, which is known to have a negative feedback effect on NOS (Viziri and Wang, 1999) could explain the results. […] The negative clinical effects in the >95% group for the Phase 3 trial may thus result from one or more negative feedback mechanisms. The negative feedback could result from either the effect of NO or the citrulline itself creating feedback on the system.

[3] = system: pediatric patients undergoing surgical procedures involving cardiopulmonary bypass; conditions: 22 patients (11 Tx, 11 PL); Dose 2 100 μmol; cited from earlier work

Which “Composite (longer of MV or InoTx), median” value ([1]; <65% of target Dose 2, p = 0.0040) does the source give for `NC(=O)NCCC[C@H](N)C(=O)O` [citrulline, L-citrulline] here?
Its value is 1267.0 min.

What about the “PICU/NICU stay, median” value ([1]; <65% of target Dose 2, p = 0.0236) of the same compound?
Its value is 2 days.

And the “Hospitalization, median” value ([1]; <65% of target Dose 2, p = 0.0953)?
Its value is 4 days.

And the “Reduction of median Composite vs placebo” value ([1]; <75% of target Dose 2)?
Its value is 42%.

And the “Reduction of median Inotrope vs placebo” value ([1]; <75% of target Dose 2)?
Its value is 26%.

And the “Reduction of median Mechanical Ventilation vs placebo” value ([1]; <75% of target Dose 2)?
Its value is 70%.

What about the “Composite (longer of MV or InoTx), median” value ([1]; <75% of target Dose 2, p = 0.0025) of the same compound?
The value was 1267.0 min.

What about the “Vent (duration of mechanical ventilation), median” value ([1]; <75% of target Dose 2, p = 0.0129) of the same compound?
Its value is 170.0 min.

What about the “PICU/NICU stay, median” value ([1]; <75% of target Dose 2, p = 0.0295) of the same compound?
The value was 2 days.

And the “Hospitalization, median” value ([1]; <75% of target Dose 2, p = 0.1905)?
Its value is 5 days.

And the “overall length of hospital stay vs placebo” value ([1]; <75% of the calculated Dose 2)?
The value was “not significantly different”.

What about the “Composite (longer of MV or InoTx), median” value ([1]; <85% of target Dose 2, p = 0.0029) of the same compound?
Its value is 1283.5 min.

What about the “PICU/NICU stay, median” value ([1]; <85% of target Dose 2, p = 0.0332) of the same compound?
Its value is 2 days.

And the “Hospitalization, median” value ([1]; <85% of target Dose 2, p = 0.1369)?
The value was 5 days.

What about the “Composite (longer of MV or InoTx), median” value ([1]; <95% of target Dose 2, p = 0.0033) of the same compound?
The value was 1357.0 min.

And the “Inotrope (duration of inotrope therapy), median” value ([1]; <95% of target Dose 2, p = 0.0242)?
Its value is 1300.0 min.

What about the “PICU/NICU stay, median” value ([1]; <95% of target Dose 2, p = 0.1232) of the same compound?
Its value is 2 days.

And the “Hospitalization, median” value ([1]; <95% of target Dose 2, p = 0.3169)?
The value was 5 days.

What about the “Hospitalization, median” value ([1]; >95% of target Dose 2, p = 0.0006) of the same compound?
Its value is 7 days.

What about the “PICU/NICU stay, median” value ([1]; >95% of target Dose 2, p = 0.0034) of the same compound?
The value was 4 days.

And the “Composite (longer of MV or InoTx), median” value ([1]; >95% of target Dose 2, p = 0.0114)?
The value was 3447.0 min.

And the “composite variable, duration of mechanical ventilation and duration of inotrope therapy vs placebo” value ([1]; >95% of the targeted dose (>190 μmol))?
Its value is “worse results when treated with citrulline than placebo patients”.

And the “Composite (longer of MV or InoTx), median” value ([1]; All Patients, p = 0.3398 vs placebo (placebo median 2204.0))?
Its value is 1640.0 min.

What about the “Hospitalization, median” value ([1]; All Patients, p = 0.3681 vs placebo (placebo median 5)) of the same compound?
The value was 5 days.

What about the “PICU/NICU stay, median” value ([1]; All Patients, p = 0.8484 vs placebo (placebo median 3)) of the same compound?
The value was 3 days.

And the “reduction in the length of stay in the PICU or NICU following surgery” value ([1]; Dose 2 at levels <95% of target)?
Its value is “statistically significant reduction of one day”.

What about the “composite variable, duration of mechanical ventilation and duration of inotrope therapy vs placebo” value ([1]; Dose 2 at levels <95% of target, two-sided Wilcoxon Rank Sum) of the same compound?
The value was “Statistically significant reduction of all variables; also recorded: highly significant reductions”.

And the “composite endpoint, treated vs placebo” value ([1]; complete modified full analysis set)?
The value was “showed no difference”.

What about the “production of NO as measured via NO metabolites” value [2] of the same compound?
Its value is “increasing levels of citrulline initially facilitate nitric oxide production; however, continued increase in citrulline concentration results in diminished production of NO”.

And the “primary parameters (duration of MV & InoTx) vs placebo” value [3]?
The value was “near-significance”.
